These results are taken from ChEMBL document CHEMBL1141527, “Design, synthesis, and thrombin-inhibitory activity of pyridin-2-ones as P2/P3 core motifs” (Bioorg Med Chem Lett, 2008).

Experiment [1] deals with Prothrombin (Homo sapiens, UniProt P00734). Briefly: Inhibition of thrombin.
The nature of experiment [2]: Inhibition of trypsin.
A short description of experiment [3]: Selectivity ratio of IC50 for trypsin to IC50 for thrombin.

In general, IC50 refers to the point on the concentration scale where inhibition reaches its midpoint. Read a high IC50 as weaker potency.

Each structure is given as a SMILES string. Where only a bound is given, the exact number is not on record here.

Compound `Cc1cc(-c2ccc(S(=O)(=O)Nn3ccc(C)c(CC(=O)NCc4ccc(N)nc4)c3=O)cc2)c(C)s1` registered an IC50 in experiment [1] greater than 44.4 µM.

For `Cc1ccccc1CCNn1ccc(C)c(CC(=O)NCc2ccc(C(=N)N)cc2)c1=O`, the IC50 in experiment [1] came out at 0.023 µM; in experiment [2], 0.963 µM. The Ratio IC50 in experiment [3] was found to be 42.

In turn, `CCc1ccc(S(=O)(=O)Nn2ccc(C)c(CC(=O)NCc3ccnc(N)c3)c2=O)cc1` had an IC50 in experiment [1] greater than 44.4 µM.

Take `Cc1ccc(C)c(S(=O)(=O)Nn2ccc(C)c(CC(=O)NCc3ccc(C(=N)N)cc3)c2=O)c1`: the results for the IC50 in experiment [1] and in experiment [2] were 0.578 µM and 7.13 µM, respectively. The Ratio IC50 in experiment [3] came out at 12.

On to `Cc1ccn(NS(=O)(=O)c2ccc(Cl)c(Cl)c2)c(=O)c1CC(=O)NCc1ccc(C(=N)N)cc1`, for which the IC50 in experiment [1] amounted to 0.885 µM; in experiment [2], 10.3 µM. Besides, the Ratio IC50 in experiment [3] is 12.

Turning to `Cc1ccn(/N=C/Cc2cccc(C(F)(F)F)c2)c(=O)c1CC(=O)NCc1ccc(N)nc1`, the IC50 in experiment [1] was 2.71 µM; in experiment [2], greater than 44.4 µM. The Ratio IC50 in experiment [3] was greater than 16.

Turning to `COc1cc(Cl)ccc1S(=O)(=O)Nn1ccc(C)c(CC(=O)NCc2ccc(C(=N)N)cc2)c1=O`, the IC50 in experiment [1] amounted to 0.307 µM; in experiment [2] it was 4.13 µM. In experiment [3], the Ratio IC50 was 13.

On to `Cc1ccnc(CNC(=O)Cc2c(C)ccn(NCCc3cc(Cl)ccc3F)c2=O)c1F`, for which the IC50 in experiment [1] was greater than 44.4 µM.

Take `COc1cccc(S(=O)(=O)Nn2ccc(C)c(CC(=O)NCc3ccc(C(=N)N)cc3)c2=O)c1`: the IC50 in experiment [1] stood at 1.05 µM; in experiment [2] it was 15.6 µM. For the same compound, in experiment [3], the Ratio IC50 was found to be 15.

`COc1ccc(S(=O)(=O)Nn2ccc(C)c(CC(=O)NCc3ccc(N)nc3)c2=O)c(OC)c1`: the IC50 is greater than 44.4 µM in experiment [1] and greater than 4.4 µM in experiment [2].

On to `Cc1ccn(NS(=O)(=O)c2ccccc2)c(=O)c1CC(=O)NCc1ccc(C(=N)N)cc1`, for which the 50% inhibitory concentration (IC50) came out at 2.47 µM in experiment [1] and 5.77 µM in experiment [2]. Besides, the Ratio IC50 in experiment [3] is 2.3.

`Cc1ccnc(CNC(=O)Cc2c(C)ccn(NS(=O)(=O)c3c(C)cccc3Cl)c2=O)c1F`: the IC50 in experiment [1] and in experiment [2] was greater than 44.4 µM each time.

Regarding `Cc1ccn(NS(=O)(=O)c2cccc3ccccc23)c(=O)c1CC(=O)NCc1ccc(C(=N)N)cc1`, the IC50 in experiment [1] was 1.24 µM; in experiment [2], 17.1 µM. Also, the Ratio IC50 in experiment [3] was 14.

With `COc1ccc(S(=O)(=O)Nn2ccc(C)c(CC(=O)NCc3ccc(C(=N)N)cc3)c2=O)cc1`, the half-maximal inhibitory concentration (IC50) is 1.85 µM in experiment [1] and 3.41 µM in experiment [2]. For the same compound, in experiment [3], the Ratio IC50 was 1.8.

As for `COc1cc(C)ccc1S(=O)(=O)Nn1ccc(C)c(CC(=O)NCc2ccc(C(=N)N)cc2)c1=O`, the IC50 in experiment [1] came to 1.18 µM; in experiment [2], 2.02 µM. For the same compound, in experiment [3], the Ratio IC50 turned out to be 1.7.

In the case of `Cc1ccn(NCS(=O)(=O)c2ccc(Cl)cc2)c(=O)c1CC(=O)NCc1ccnc(N)c1`, in experiment [1], the IC50 was greater than 44.4 µM.

`Cc1ccc(C)c(CCNn2ccc(C)c(CC(=O)NCc3ccc(C(=N)N)cc3)c2=O)c1` yielded an IC50 in experiment [2] of 2.14 µM. Further, the Ratio IC50 in experiment [3] worked out at 23.

`Cc1ccnc(CNC(=O)Cc2c(C)ccn(NS(=O)(=O)c3ccccc3S(C)(=O)=O)c2=O)c1F` gave an IC50 in experiment [1] greater than 44.4 µM.

Consider `Cc1ccn(NCCc2ccccc2)c(=O)c1CC(=O)NCc1ccc(C(=N)N)cc1`, for which the IC50 was found to be 0.091 µM in experiment [1] and 1.42 µM in experiment [2]. For the same compound, the Ratio IC50 in experiment [3] was determined as 16.

Regarding `Cc1ccn(NS(=O)(=O)Cc2ccccc2)c(=O)c1CC(=O)NCc1ccc(C(=N)N)cc1`, the IC50 in experiment [1] was 1.92 µM; in experiment [2] it was 15.2 µM. Moreover, the Ratio IC50 in experiment [3] was 7.9.

Consider `CCCc1ccc(S(=O)(=O)Nn2ccc(C)c(CC(=O)NCc3nccc(C)c3F)c2=O)cc1`, for which the concentration for half-maximal inhibition (IC50) in experiment [1] is greater than 44.4 µM.
